Assay results: ChEMBL document CHEMBL1143926, “Synthesis of novel analogues of (+)-varitriol via olefin cross-metathesis reaction” (Bioorg Med Chem Lett, 2008)
Calls of active or inactive are those of the source. No cut-off for these calls is given here.

Columns and labels:
HT-29 = assay: Cytotoxicity against human HT29 cells after 24 hrs by MTT assay; format: functional
[1] = Cytotoxicity against mouse RAW2647 cells after 24 hrs by MTT assay; format: cell-based, RAW264.7; conditions: for GI50 at 24 h: RAW2647 cells; for Activity: raw264.7, 24 h
A549 = assay: Cytotoxicity against human A549 cells after 24 hrs by MTT assay; format: functional, cell-based
CCRF-CEM = assay: Cytotoxicity against human CCRF-CEM cells; format: functional
HL-60 = assay: Cytotoxicity against human HL60 cells; format: functional
OVCAR-5 = assay: Cytotoxicity against human OVCAR5 cells; format: functional
SNB-19 = assay: Cytotoxicity against human SNB19 cells; format: functional
COLO 205 = assay: Cytotoxicity against human COLO205 cells; format: functional
T47D = assay: Cytotoxicity against human T47D cells; format: functional
DU-145 = assay: Cytotoxicity against human DU145 cells; format: functional
RXF 393 = assay: Cytotoxicity against human RXF393 cells; format: functional
SNB-75 = assay: Cytotoxicity against human SNB75 cells; format: functional

Compound	GI50 (HT-29)	GI50 at 24 h [1] [µM]	Activity (A549)	also measured
COc1cccc(/C=C/[C@H]2O[C@@H]3OC(C)(C)O[C@@H]3[C@H]2O)c1	17.5 10^-4 M	671	inactive	–
COc1cc(/C=C/[C@H]2OC(OC)[C@@H]3OC(C)(C)O[C@H]23)ccc1O (stereo not given in full)	13.2 10^-4 M	835	inactive	–
COc1cccc(/C=C/C2OC(C)C(O)C2O)c1CO (racemic) [(+/-)-VARITRIOL]	–	–	–	GI50 (CCRF-CEM): 26 µM; GI50 (HL-60): 25.2 µM; GI50 (OVCAR-5): 68.2 µM; GI50 (SNB-19): 91.3 µM; GI50 (COLO 205): 95.9 µM; GI50 (T47D): 0.21 µM; GI50 (DU-145): 1.1 µM; GI50 (RXF 393): 0.163 µM; GI50 (SNB-75): 0.244 µM
COc1cc(/C=C/[C@H]2O[C@@H]3OC(C)(C)O[C@@H]3[C@H]2O)cc(OC)c1	20 10^-4 M	–	inactive	Activity [1]: Not Active
COc1ccc(/C=C/[C@H]2OC(OC)[C@@H]3OC(C)(C)O[C@H]23)cc1 (stereo not given in full)	4.7 10^-4 M	696	inactive	–
COc1cc(/C=C/[C@H]2OC(OC)[C@@H]3OC(C)(C)O[C@H]23)cc(OC)c1 (stereo not given in full)	–	541	inactive	Activity (HT-29): inactive
COc1cccc(/C=C/[C@H]2OC(OC)[C@@H]3OC(C)(C)O[C@H]23)c1 (stereo not given in full)	–	–	inactive	Activity (HT-29): inactive; Activity [1]: Not Active
COc1cc(/C=C/[C@H]2OC(OC)[C@@H]3OC(C)(C)O[C@H]23)cc2c1OCO2 (stereo not given in full)	14 10^-4 M	462	inactive	–
